Laboratory results taken from PMC11528067, “Structural Bases of Dihydroxy Acid Dehydratase Inhibition and Biodesign for Self-Resistance” (Biodesign Research, 2024).
Values joined by “and” are separate entries in the source; they are usually repeats but may differ in a detail not shown here. Equal values may be shown once. Values belong to the molecule of their own block, whether it stands above or below them.

Experiments:
AthDHAD [1] = target: T1, AthDHAD (Arabidopsis thaliana, UniProt Q9LIR4); assay: In vitro activity and AA inhibition assay of AthDHAD; assay type: biochemical, A. thaliana; settings: AthDHAD wild type
T1 construct: made in house; host or cells: E. coli BL21(DE3)
T1 sequence (Q9LIR4 35-608): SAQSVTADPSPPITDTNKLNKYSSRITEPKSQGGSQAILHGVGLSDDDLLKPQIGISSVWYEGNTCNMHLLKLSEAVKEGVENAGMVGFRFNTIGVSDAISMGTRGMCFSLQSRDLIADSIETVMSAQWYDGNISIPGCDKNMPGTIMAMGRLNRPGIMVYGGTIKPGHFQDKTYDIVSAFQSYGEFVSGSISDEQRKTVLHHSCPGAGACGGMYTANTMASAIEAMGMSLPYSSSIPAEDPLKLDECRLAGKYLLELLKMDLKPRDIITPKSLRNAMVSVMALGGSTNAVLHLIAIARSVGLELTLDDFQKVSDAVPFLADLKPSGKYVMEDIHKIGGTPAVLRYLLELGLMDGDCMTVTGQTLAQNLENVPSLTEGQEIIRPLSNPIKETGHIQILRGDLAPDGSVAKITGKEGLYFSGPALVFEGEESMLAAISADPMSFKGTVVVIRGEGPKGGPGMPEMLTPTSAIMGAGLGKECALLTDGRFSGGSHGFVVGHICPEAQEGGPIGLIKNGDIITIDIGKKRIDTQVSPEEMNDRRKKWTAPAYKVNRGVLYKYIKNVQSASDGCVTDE
Description: (§1) In vitro activity assays were carried out in 25 μl of reaction mixture containing A10 buffer without NaCl. The Michaelis–Menten constants (kcat, KM) for each enzyme were calculated by fitting the following formula to the observed reaction rate. V=VmaxS/KM+S Vmax=kcatE0
(§2) The inhibition percentages of AA on AthDHADs were determined using in vitro biochemical assays and calculated with the following equation:
(§3) Inhibition percentage = 100 − 100 × (initial reaction rate with AA/initial reaction rate without AA)
(§4) The inhibition assays were conducted with either 10 mM (±)-sodium-α,β-dihydroxyisovalerate (DHI) or 10 mM (±)-sodium-α,β-dihydroxymethylvalerate hydrate (DHMV), along with 0.5 μM of purified AthDHAD enzyme or its mutants. The reaction was initiated by adding the corresponding enzymes, followed by a 20-min incubation at 28°C. To halt the reactions, an equal volume of acetonitrile was introduced. Subsequently, approximately 0.04 volumes of 100 mM phenylhydrazine were added to facilitate the derivatization of the product, either 2-keto-isovalerate or 2-keto-3-methylvalerate, at room temperature for 30 min. For HPLC analysis, 10 μl of the reaction mixture was utilized.

AthDHAD-V178I = target: T2, AthDHAD-V178I (Arabidopsis thaliana, UniProt Q9LIR4, V212I); assay: In vitro activity and AA inhibition assay of AthDHAD mutant V178I; assay type: biochemical, A. thaliana; settings: DHI as substrate (10 mM), 0.5 μM enzyme
T2 construct: made in house; host or cells: E. coli BL21(DE3)
T2 sequence (Q9LIR4 35-608 V212I): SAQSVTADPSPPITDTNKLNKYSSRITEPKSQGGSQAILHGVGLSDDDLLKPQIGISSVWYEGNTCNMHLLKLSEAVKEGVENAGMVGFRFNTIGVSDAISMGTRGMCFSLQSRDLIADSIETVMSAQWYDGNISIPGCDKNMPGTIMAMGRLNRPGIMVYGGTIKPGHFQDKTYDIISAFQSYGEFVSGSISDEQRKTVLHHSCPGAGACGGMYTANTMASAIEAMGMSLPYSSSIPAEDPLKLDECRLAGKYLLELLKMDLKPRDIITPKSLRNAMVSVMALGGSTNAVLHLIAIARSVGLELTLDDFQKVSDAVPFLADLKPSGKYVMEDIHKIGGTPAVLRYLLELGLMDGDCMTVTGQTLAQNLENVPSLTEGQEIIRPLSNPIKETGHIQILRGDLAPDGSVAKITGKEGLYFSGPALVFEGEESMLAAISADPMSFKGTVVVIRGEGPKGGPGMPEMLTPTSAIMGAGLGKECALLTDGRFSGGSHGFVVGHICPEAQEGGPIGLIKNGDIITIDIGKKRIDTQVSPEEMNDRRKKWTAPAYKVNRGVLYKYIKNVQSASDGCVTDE
Description: as §1, §2, §3, §4

AthDHAD-V178W = target: T3, AthDHAD-V178W (Arabidopsis thaliana, UniProt Q9LIR4, V212W); assay: In vitro activity and AA inhibition assay of AthDHAD mutant V178W; assay type: biochemical, A. thaliana; settings: DHI as substrate (10 mM), 0.5 μM enzyme
T3 construct: made in house; host or cells: E. coli BL21(DE3)
T3 sequence (Q9LIR4 35-608 V212W): as the sequence (Q9LIR4 35-608 V212I) above, with I178W counted along it
Description: as §1, §2, §3, §4

AthDHAD-I177L-V497L = target: T4, AthDHAD-I177L-V497L (Arabidopsis thaliana, UniProt Q9LIR4, I211L/V531L); assay: In vitro activity and AA inhibition assay of AthDHAD double mutant I177L/V497L; assay type: biochemical, A. thaliana
T4 construct: made in house; host or cells: E. coli BL21(DE3)
T4 sequence (Q9LIR4 35-608 I211L/V531L): as the sequence (Q9LIR4 35-608 V212I) above, with I177L, I178V, V497L counted along it
Description: as §1, §2, §3, §4

AthDHAD-I177F = target: T5, AthDHAD-I177F (Arabidopsis thaliana, UniProt Q9LIR4, I211F); assay: In vitro activity and AA inhibition assay of AthDHAD mutant I177F; assay type: biochemical, A. thaliana
T5 construct: made in house; host or cells: E. coli BL21(DE3)
T5 sequence (Q9LIR4 35-608 I211F): as the sequence (Q9LIR4 35-608 V212I) above, with I177F, I178V counted along it
Description: as §1, §2, §3, §4

AthDHAD-V496L = target: T6, AthDHAD-V496L (Arabidopsis thaliana, UniProt Q9LIR4, V530L); assay: In vitro activity and AA inhibition assay of AthDHAD mutant V496L; assay type: biochemical, A. thaliana; settings: DHI as substrate (10 mM), 0.5 μM enzyme
T6 construct: made in house; host or cells: E. coli BL21(DE3)
T6 sequence (Q9LIR4 35-608 V530L): as the sequence (Q9LIR4 35-608 V212I) above, with I178V, V496L counted along it
Description: as §1, §2, §3, §4

AthDHAD-V497F = target: T7, AthDHAD-V497F (Arabidopsis thaliana, UniProt Q9LIR4, V531F); assay: In vitro activity and AA inhibition assay of AthDHAD mutant V497F; assay type: biochemical, A. thaliana; settings: DHI as substrate (10 mM), 0.5 μM enzyme
T7 construct: made in house; host or cells: E. coli BL21(DE3)
T7 sequence (Q9LIR4 35-608 V531F): as the sequence (Q9LIR4 35-608 V212I) above, with I178V, V497F counted along it
Description: as §1, §2, §3, §4

AthDHAD [2] = target: T1, AthDHAD; settings: cited from earlier work
[3] = tested on: Transgenic A. thaliana expressing AstD; design: method as in PMID 29995859; settings: cited from earlier work
AthDHAD-V497I = target: T8, AthDHAD-V497I (Arabidopsis thaliana, UniProt Q9LIR4, V531I); assay: In vitro activity and AA inhibition assay of AthDHAD mutant V497I; assay type: biochemical, A. thaliana; settings: DHI as substrate (10 mM), 0.5 μM enzyme
T8 construct: made in house; host or cells: E. coli BL21(DE3)
T8 sequence (Q9LIR4 35-608 V531I): as the sequence (Q9LIR4 35-608 V212I) above, with I178V, V497I counted along it
Description: as §1, §2, §3, §4

AthDHAD-V178F = target: T9, AthDHAD-V178F (Arabidopsis thaliana, UniProt Q9LIR4, V212F); assay: In vitro activity and AA inhibition assay of AthDHAD mutant V178F; assay type: biochemical, A. thaliana; settings: DHI as substrate (10 mM), 0.5 μM enzyme
T9 construct: made in house; host or cells: E. coli BL21(DE3)
T9 sequence (Q9LIR4 35-608 V212F): as the sequence (Q9LIR4 35-608 V212I) above, with I178F counted along it
Description: as §1, §2, §3, §4

AthDHAD-V497L = target: T10, AthDHAD-V497L (Arabidopsis thaliana, UniProt Q9LIR4, V531L); assay: In vitro activity and AA inhibition assay of AthDHAD mutant V497L; assay type: biochemical, A. thaliana
T10 construct: made in house; host or cells: E. coli BL21(DE3)
T10 sequence (Q9LIR4 35-608 V531L): as the sequence (Q9LIR4 35-608 V212I) above, with I178V, V497L counted along it
Description: as §1, §2, §3, §4

[4] = tested on: A. thaliana transgenic lines with mutant AthDHAD (V178L and V496L); assay: Growth inhibition of AA on transgenic A. thaliana with mutant AthDHAD (V178L and V496L); assay type: in vivo; settings: 100 μM AA on Murashige and Skoog medium, day 7; V178L and V496L lines compared to line expressing AstD
Text: The gene block containing DHAD variants, and the 2XFLAG-tag was synthesized and then cloned into modified pEG302 vector using Gateway LR Clonase II Enzyme Mix (Thermo Fisher Scientific). Ubiquitin-10 promoter was used to drive the expression of DHAD variants. The construct was electrotransformed into Agrobacterium tumefaciens strain Agl0 and then transformed into A. thaliana rdr6-15 in which the transgene silencing pathway is blocked. Positive transgenic plants were selected using the hygromycin B and were tested for survival in the presence of AA.
A. thaliana seeds were sterilized with 70% ethanol and sown on Murashige and Skoog medium supplemented with either ethanol control or 100 μM AA. Photos were taken, and fresh weights were measured at day 7.

AthDHAD-V178L-V497L = target: T11, AthDHAD-V178L-V497L (Arabidopsis thaliana, UniProt Q9LIR4, V212L/V531L); assay: In vitro activity and AA inhibition assay of AthDHAD double mutant V178L/V497L; assay type: biochemical, A. thaliana
T11 construct: made in house; host or cells: E. coli BL21(DE3)
T11 sequence (Q9LIR4 35-608 V212L/V531L): as the sequence (Q9LIR4 35-608 V212I) above, with I178L, V497L counted along it
Description: as §1, §2, §3, §4

AthDHAD-V496I = target: T12, AthDHAD-V496I (Arabidopsis thaliana, UniProt Q9LIR4, V530I); assay: In vitro activity and AA inhibition assay of AthDHAD mutant V496I; assay type: biochemical, A. thaliana
T12 construct: made in house; host or cells: E. coli BL21(DE3)
T12 sequence (Q9LIR4 35-608 V530I): as the sequence (Q9LIR4 35-608 V212I) above, with I178V, V496I counted along it
Description: as §1, §2, §3, §4

AthDHAD-I177L-V496L = target: T13, AthDHAD-I177L-V496L (Arabidopsis thaliana, UniProt Q9LIR4, I211L/V530L); assay: In vitro activity and AA inhibition assay of AthDHAD double mutant I177L/V496L; assay type: biochemical, A. thaliana
T13 construct: made in house; host or cells: E. coli BL21(DE3)
T13 sequence (Q9LIR4 35-608 I211L/V530L): as the sequence (Q9LIR4 35-608 V212I) above, with I177L, I178V, V496L counted along it
Description: as §1, §2, §3, §4

A. thaliana = tested on: A. thaliana; design: method as in PMID 29995859; settings: A. thaliana as a model plant organism; cited from earlier work
AthDHAD-V178L = target: T14, AthDHAD-V178L (Arabidopsis thaliana, UniProt Q9LIR4, V212L); assay: In vitro activity and AA inhibition assay of AthDHAD mutant V178L; assay type: biochemical, A. thaliana; settings: DHI as substrate (10 mM), 0.5 μM enzyme
T14 construct: made in house; host or cells: E. coli BL21(DE3)
T14 sequence (Q9LIR4 35-608 V212L): as the sequence (Q9LIR4 35-608 V212I) above, with I178L counted along it
Description: as §1, §2, §3, §4

AteDHAD = tested on: AteDHAD; design: method as in PMID 29995859; settings: housekeeping DHAD from A. terreus (XP_001208445.1); cited from earlier work
AstD = settings: cited from earlier work
AthDHAD-I177L = target: T15, AthDHAD-I177L (Arabidopsis thaliana, UniProt Q9LIR4, I211L); assay: In vitro activity and AA inhibition assay of AthDHAD mutant I177L; assay type: biochemical, A. thaliana
T15 construct: made in house; host or cells: E. coli BL21(DE3)
T15 sequence (Q9LIR4 35-608 I211L): as the sequence (Q9LIR4 35-608 V212I) above, with I177L, I178V counted along it
Description: as §1, §2, §3, §4

AthDHAD-V496F = target: T16, AthDHAD-V496F (Arabidopsis thaliana, UniProt Q9LIR4, V530F); assay: In vitro activity and AA inhibition assay of AthDHAD mutant V496F; assay type: biochemical, A. thaliana
T16 construct: made in house; host or cells: E. coli BL21(DE3)
T16 sequence (Q9LIR4 35-608 V530F): as the sequence (Q9LIR4 35-608 V212I) above, with I178V, V496F counted along it
Description: as §1, §2, §3, §4

Km (AthDHAD [1]; substrate DHMV): 4 ± 0.45 mM
kcat (AthDHAD [1]; substrate DHMV): 6.50 ± 0.32 s⁻¹
Compound: CC[C@@](C)(O)[C@@H](O)C(=O)O (racemic) [DHMV, (±)-sodium-α,β-dihydroxymethylvalerate hydrate, reference compound]

Compound: CC(C)=C1CCC23COC(C2)C(O)(C(=O)O)CCC13 (centres unmarked) [AA, aspterric acid]
IC50 (AthDHAD-V178I): 430 nM and 431 nM
IC50 (AthDHAD-V178W): 2340 nM
IC50 (AthDHAD-I177L-V497L): 28 nM
IC50 (AthDHAD-I177F): 37000 ± 8770 nM
IC50 (AthDHAD-V496L): 820 nM and 824 nM
IC50 (AthDHAD-V497F): 1250 nM
Ki (AthDHAD [2]; binding of AA to AthDHAD as a competitive inhibitor): ~300 nM
mode of inhibition (AthDHAD [2]; housekeeping DHAD from A. thaliana (AT3G23940)): competitive inhibitor
resistance of transgenic plants to AA [3]: strong resistance
IC50 (AthDHAD-V497I): 73.3 nM and 73 nM
IC50 (AthDHAD-V178F): 6000 nM and 5990 nM
IC50 (AthDHAD-V497L): 59 nM
growth of transgenic plants in the presence of AA [4]: not able to rescue the growth of the plants
IC50 (AthDHAD-V178L-V497L): 396 ± 11 nM
IC50 (AthDHAD-V496I): 1140 ± 52 nM
IC50 (AthDHAD-I177L-V496L): 309 ± 74 nM
herbicidal effect in spray experiments (A. thaliana): effective as an herbicide
IC50 (AthDHAD-V178L): 970 nM and 974 nM
mode of inhibition (AteDHAD): competitive inhibitor
AA resistance observed in AstD (AstD; reported): over 8 mM
sensitivity of AstD to AA (AstD; within the solubility limit (8 mM)): completely insensitive
IC50 (AthDHAD-I177L): 50 ± 1 nM
IC50 (AthDHAD-V496F): 2940 nM
IC50 (AthDHAD [1]; DHI as substrate (10 mM), 0.5 μM enzyme): 250 nM and 249 nM
